Patent US11753363B2, “13-oxidized ingenol derivative and use thereof” (Tianjin Pharmaceutical Da Ren Tang Group Corp., Ltd. …, priority 2017, dated 2023)
Values after ≈ are worked out from the molar mass of the structure shown.

Experiments:
Assay type in all cases: cell-based
[1] = system: A549 (human lung cancer cells); test: Inhibition of proliferation of tumor cell lines (MTT), A549; settings: A549, 72 h; for IC50: Homo sapiens, read-out: IC50 value of compound for inhibition of proliferation of tumor cell lines, A549
Procedure: (§1) In this example, the inhibitory activity of compounds of the present invention against proliferation of seven human tumor cell lines and mouse B16-F10 melanoma cells was tested in vitro, and the IC50 value (50% inhibitory concentration) of compounds against each tumor cell line was calculated.
(§2) The seven human tumor cell lines are: MCF-7 (human breast cancer cells), LOVO (human colon cancer cells), A549 (human lung cancer cells), BGC-823 (human gastric cancer cells), SMMC-7721 (human liver cancer cells), K562 (human leukemia cells), and HeLa (human cervical cancer cells).
(§3) IC50 values of the compounds for A549, BGC-823, LOVO, MCF-7, SMMC-7721, HeLa, and B16-F10 cells were tested. The above cells were routinely cultured in 1640 nutrient solution containing 10% calf serum, with passage for 1 time every 2 days, and the cells in logarithmic growth phase were taken for experiments. After the A549, BGC-823, LOVO, MCF-7, SMMC-7721, HeLa and B16-F10 cells in logarithmic growth phase were subjected to 0.25% trypsin digestion, they were blown into a single cell suspension, and then the cell concentration was adjusted to about 1×10^5·mL^−1 using RPMI 1640 solution containing 10% calf serum. The cells were seeded in a 96-well culture plate at 100 μL per well, and cultured for 24 hours until the cells were attached. K562 cells were taken and centrifuged and diluted into 2×10^5·mL^−1 single cell suspension with RPMI 1640 solution containing 10% calf serum, and inoculated into a 96-well culture plate at 100 μL per well.
(§4) 100 μL of sample solution with different concentrations to be tested were added to the above 96-well plate, each concentration was added to 4 wells in parallel, and the cell control group was added with an equal volume of RPMI 1640 medium containing 10% calf serum to make a reaction volume of 200 μL. After incubating in an incubator at 37° C., 5% CO2 for 72 h, 10 μL of 5 mg·mL^−1 MTT solution was added to each well, and incubated at 37° C. for 4 h. The supernatant was carefully aspirated, 180 μL of DMSO was added to each well followed by shaking, and the absorbance (OD) value was measured at 570 nm on the microplate reader. The inhibition rate was calculated, and regression equation was established with the logarithmic value of the sample concentration and the inhibition rate (IR) to find the IC50 value of the compound against the cells to be tested. IR (%)=(1−OD value of the experimental group/OD value of the cell control group)×100%

[2] = system: SMMC-7721 (human liver cancer cells); test: Inhibition of proliferation of tumor cell lines (MTT), SMMC-7721; settings: SMMC-7721, 72 h; for IC50: Homo sapiens, read-out: IC50 value of compound for inhibition of proliferation of tumor cell lines, SMMC-7721
Procedure: as §1, §2, §3, §4

[3] = system: MCF-7 (human breast cancer cells); test: Inhibition of proliferation of tumor cell lines (MTT), MCF-7; settings: for IC50: Homo sapiens, MCF7, MCF-7, 72 h, read-out: IC50 value of compound for inhibition of proliferation of tumor cell lines, MCF-7
Procedure: as §1, §2, §3, §4

[4] = system: mouse B16-F10 melanoma cells; test: Inhibition of proliferation of tumor cell lines (MTT), B16-F10; settings: B16-F10, 72 h; for IC50: Mus musculus, read-out: IC50 value of compound for inhibition of proliferation of tumor cell lines, B16-F10
Procedure: as §1, §3, §4

[5] = system: release of IL-8 by human keratinocytes (HaCaT); test: Release of IL-8 by human keratinocytes (HaCaT), IL-8 Elisa; settings: 24 h, (Csample−Ccontrol)/Ccontrol×100%; for activation at 0.1 µg/mL: Homo sapiens, HaCaT, read-out: Efficiency of compound in stimulating the release of IL-8 by HaCaT cells
Procedure: This Example investigated the effect of compound on release of IL-8 by human keratinocytes (HaCaT) and calculated the efficiency of each compound in stimulating the release of IL-8 by human keratinocytes (HaCaT).
Hacat cells were cultured in MEM+10% FBS under the conditions of 37° C., 5% CO2, and when the cells reached 80-95% fusion, they were inoculated into a 96-well culture plate (1×10^4 cells/well) at 100 μL/well, and incubated for 18-24 h. The supernatant was discarded and the cells were incubated for 3-6 h in 1% FBS medium. Different concentrations of the sample solution of compound to be tested were added to each well, and the cell control group was added with an equal volume of 1% FBS medium at 10 μL/well, and incubated for 24 h. The supernatant was taken and tested according to the operation sequence of the IL-8 Elisa kit. Calculation formula of Efficiency: Efficiency (%)=(Csample−Ccontrol)/Ccontrol×100%

[6] = system: K562 (human leukemia cells); test: Inhibition of proliferation of tumor cell lines (MTT), K562; settings: K562, 72 h; for IC50: Homo sapiens, read-out: IC50 value of compound for inhibition of proliferation of tumor cell lines, K562
Procedure: as §1, §2, §3, §4

[7] = system: neutrophilic granulocytes; test: Neutrophil oxidative burst (luminol chemiluminescence); settings: rat neutrophils, (Csample−Ccontrol)/Ccontrol×100%; for activation at 0.1 µg/mL / activation at 3 µg/mL: Neutrophil, read-out: Efficiency of compounds in stimulating neutrophil oxidative burst; for activation at 0.1 µg/mL: 0.1 μg/mL
Procedure: This example investigated the effect of compound on neutrophil oxidative burst and calculated the efficiency of each compound in stimulating neutrophil oxidative burst.
Blood was taken from the abdominal aorta of rat. The neutrophilic granulocytes were isolated by the operational procedure of the rat peripheral blood neutrophil isolation kit. The neutrophilic granulocytes were re-suspended by Hanks, and were plated in a 96-well white plate at 1×10^5 cells/well, 80 μL/well; 1 mM of Luminol was added at 10 μL/well; 10 μL of the sample was added to each well, and the degree of oxidative burst was evaluated by chemiluminescence. Calculation formula of Efficiency: Efficiency (%)=(Csample−Ccontrol)/Ccontrol×100%

[8] = system: BGC-823 (human gastric cancer cells); test: Inhibition of proliferation of tumor cell lines (MTT), BGC-823; settings: BGC-823, 72 h; for IC50: Homo sapiens, read-out: IC50 value of compound for inhibition of proliferation of tumor cell lines, BGC-823
Procedure: as §1, §2, §3, §4

[9] = system: LOVO (human colon cancer cells); test: Inhibition of proliferation of tumor cell lines (MTT), LOVO; settings: 72 h; for IC50: Homo sapiens, read-out: IC50 value of compound for inhibition of proliferation of tumor cell lines, LOVO
Procedure: as §1, §2, §3, §4

[10] = system: HeLa (human cervical cancer cells); test: Inhibition of proliferation of tumor cell lines (MTT), HeLa; settings: 72 h; for IC50: Homo sapiens, read-out: IC50 value of compound for inhibition of proliferation of tumor cell lines, HeLA
Procedure: as §1, §2, §3, §4

C/C=C(/C)C(=O)O[C@H]1C(C)=C[C@]23C(=O)[C@@H](C=C(CO)[C@@H](O)[C@]12O)[C@H]1[C@@H](C[C@H]3C)C1(C)C [3-O-angeloyl-ingenol, reference compound]
IC50 value of compound for inhibition of proliferation of tumor cell lines, A549 [1]: 31.2 µg/mL | IC50 value of compound for inhibition of proliferation of tumor cell lines, SMMC-7721 [2]: 28.2 µg/mL | IC50 value of compound for inhibition of proliferation of tumor cell lines, MCF-7 ([3]; MCF-7, 72 h): 57.4 µg/mL | IC50 value of compound for inhibition of proliferation of tumor cell lines, B16-F10 [4]: 38.1 µg/mL | Efficiency of compound in stimulating the release of IL-8 by HaCaT cells ([5]; 0.1 μg/mL): 31.9% | Efficiency of compound in stimulating the release of IL-8 by HaCaT cells ([5]; 1 μg/mL): 41.4% | IC50 value of compound for inhibition of proliferation of tumor cell lines, K562 [6]: 0.0076 µg/mL | Efficiency of compounds in stimulating neutrophil oxidative burst ([7]; 3 μg/mL): 51.4% | IC50 value of compound for inhibition of proliferation of tumor cell lines, BGC-823 [8]: 43.5 µg/mL | IC50 value of compound for inhibition of proliferation of tumor cell lines, LOVO [9]: 33.4 µg/mL | IC50 value of compound for inhibition of proliferation of tumor cell lines, HeLA [10]: 49.4 µg/mL

CCCCCCCCCCCC(=O)O[C@@]12C[C@@H](C)[C@]34C=C(C)[C@H](OC(C)=O)[C@@]3(O)[C@H](O)C(CO)=C[C@H](C4=O)[C@@H]1C2(C)C [Compound 10, 3-O-acetyl-13-O-dodecanoyl-ingenol]
IC50 [1]: 10.7 µg/mL (≈ 18.2 µM) | IC50 [2]: 13.1 µg/mL (≈ 22.2 µM) | IC50 [3]: 16.3 µg/mL (≈ 27.7 µM) | IC50 [4]: 21.4 µg/mL (≈ 36.3 µM) | activation at 0.1 µg/mL ([5]; 0.1 μg/mL): 79.5% | IC50 [6]: 0.22 µg/mL (≈ 0.374 µM) | activation at 0.1 µg/mL [7]: 111% | IC50 [8]: 14.7 µg/mL (≈ 25 µM) | IC50 [9]: 9.41 µg/mL (≈ 16 µM) | IC50 [10]: 10.9 µg/mL (≈ 18.5 µM)

CCCCCCCC(=O)O[C@@]12C[C@@H](C)[C@]34C=C(C)[C@H](O)[C@@]3(O)[C@H](O)C(CO)=C[C@H](C4=O)[C@@H]1C2(C)C [Compound 7, 13-O-n-octanoyl-ingenol]
IC50 [1]: 29.7 µg/mL (≈ 60.5 µM) | IC50 [2]: 16 µg/mL (≈ 32.6 µM) | IC50 [3]: 16.2 µg/mL (≈ 33 µM) | IC50 [4]: 38.4 µg/mL (≈ 78.3 µM) | IC50 [6]: 1.72 µg/mL (≈ 3.51 µM) | activation at 3 µg/mL ([7]; 3 μg/mL): 45% | IC50 [8]: 25.1 µg/mL (≈ 51.2 µM) | IC50 [9]: 24.1 µg/mL (≈ 49.1 µM) | IC50 [10]: 29.3 µg/mL (≈ 59.7 µM)

CCCCCCCCCCCC(=O)O[C@@]12C[C@@H](C)[C@]34C=C(C)[C@H](OC(=O)C(C)C(C)C)[C@@]3(O)[C@H](O)C(CO)=C[C@H](C4=O)[C@@H]1C2(C)C (stereo partly drawn) [3-O-(2,3-dimethylbutyryl)-13-O-dodecanoyl-ingenol]
IC50 [1]: 11 µg/mL (≈ 17.1 µM) | IC50 [2]: 14.5 µg/mL (≈ 22.5 µM) | IC50 [3]: 9.05 µg/mL (≈ 14 µM) | IC50 [4]: 17.8 µg/mL (≈ 27.6 µM) | activation at 0.1 µg/mL ([5]; 0.1 μg/mL): 50% | IC50 [6]: 0.12 µg/mL (≈ 0.186 µM) | activation at 0.1 µg/mL [7]: 71.4% | IC50 [8]: 10.4 µg/mL (≈ 16.1 µM) | IC50 [9]: 7.6 µg/mL (≈ 11.8 µM) | IC50 [10]: 24.3 µg/mL (≈ 37.7 µM)

CCCCCCCCCCCC(=O)O[C@@]12C[C@@H](C)[C@]34C=C(C)[C@H](O)[C@@]3(O)[C@H](O)C(COC(=O)CCC)=C[C@H](C4=O)[C@@H]1C2(C)C [Compound 13, 20-O-n-butanoyl-13-O-dodecanoyl-ingenol]
IC50 [1]: 17.2 µg/mL (≈ 27.9 µM) | IC50 [2]: 12.5 µg/mL (≈ 20.3 µM) | IC50 [3]: 18 µg/mL (≈ 29.2 µM) | IC50 [4]: 30.5 µg/mL (≈ 49.4 µM) | activation at 0.1 µg/mL ([5]; 0.1 μg/mL): 30.3% | IC50 [6]: 0.07 µg/mL (≈ 0.113 µM) | activation at 3 µg/mL ([7]; 3 μg/mL): 62.4% | IC50 [8]: 12.4 µg/mL (≈ 20.1 µM) | IC50 [9]: 6.93 µg/mL (≈ 11.2 µM) | IC50 [10]: 24.2 µg/mL (≈ 39.2 µM)

C/C=C(\C)C(=O)O[C@H]1C(C)=C[C@]23C(=O)[C@@H](C=C(CO)[C@@H](O)[C@]12O)[C@@H]1C(C)(C)[C@]1(OC(=O)CCCCCCCCCCC)C[C@H]3C [Compound 20, 3-O-tigloyl-13-O-dodecanoyl-ingenol]
IC50 [1]: 13.1 µg/mL (≈ 20.8 µM) | IC50 [2]: 18.4 µg/mL (≈ 29.3 µM) | IC50 [3]: 6.8 µg/mL (≈ 10.8 µM) | IC50 [4]: 3.33 µg/mL (≈ 5.3 µM) | activation at 0.1 µg/mL ([5]; 0.1 μg/mL): 109% | IC50 [6]: 0.81 µg/mL (≈ 1.29 µM) | activation at 3 µg/mL ([7]; 3 μg/mL): 43.8% | IC50 [8]: 11 µg/mL (≈ 17.5 µM) | IC50 [9]: 9.91 µg/mL (≈ 15.8 µM) | IC50 [10]: 7.45 µg/mL (≈ 11.8 µM)

CCCCCCCCCCCC(=O)O[C@@]12C[C@@H](C)[C@]34C=C(C)[C@H](O)[C@@]3(O)[C@H](O)C(COC(=O)C(C)C(C)C)=C[C@H](C4=O)[C@@H]1C2(C)C (stereo partly drawn) [20-O-(2,3-dimethylbutyryl)-13-O-dodecanoyl-ingenol]
IC50 [1]: 8.89 µg/mL (≈ 13.8 µM) | IC50 [2]: 10.7 µg/mL (≈ 16.6 µM) | IC50 [3]: 10.1 µg/mL (≈ 15.7 µM) | IC50 [4]: 16.6 µg/mL (≈ 25.7 µM) | IC50 [6]: 0.64 µg/mL (≈ 0.992 µM) | activation at 3 µg/mL ([7]; 3 μg/mL): 64.5% | IC50 [8]: 11 µg/mL (≈ 17.1 µM) | IC50 [9]: 8.36 µg/mL (≈ 13 µM) | IC50 [10]: 14.5 µg/mL (≈ 22.5 µM)
